Reference: publication PMC8131842, “Therapeutic Potential of Vasoactive Intestinal Peptide and its Derivative Stearyl-Norleucine-VIP in Inflammation-Induced Osteolysis” (Frontiers in Pharmacology, 2021)

Experiments:
[1] = tested on: M-CSF + RANKL treated pre-osteoclasts; test: Osteoclastogenesis assay, direct effect in the absence of inflammation (TRAP staining); format: cell-based, mouse; conditions: 10^-6 M, no inflammation, TRAP-positive multinucleated osteoclasts after 5 days, n=5, p<0.01
Procedure: Osteoclastogenesis assay. Preosteoclasts, prepared like the BMDMs, were plated in 96-well plates (7,000 cells per well, for TRAP staining, see below) or in 6-well plates (200,000 cells per well, for RNA) in standard medium supplemented with 20 ng/ml M-CSF and 50 ng/ml RANKL (R&D Systems, Minneapolis, MN, United States). After 48 h, the medium was replaced by the conditioned medium of BMDM, supplemented with RANKL and M-CSF. Where indicated, 10^−6 M SNV or VIP were added. […], cells were stained using a TRAP kit (Sigma-Aldrich, St. Louis, MO, United States), and multinucleated (>3 nuclei) TRAP-positive cells were defined as osteoclasts. Images were acquired at an original magnification of ×4 (Evos FLC, Life Technologies, MS, United States). The number of osteoclasts and the total osteoclast area were measured using ImageJ software (National Institutes of Health, Bethesda, MD, United States).
FIGURE 3 Direct effect of VIP and SNV on osteoclastogenesis. (A) VPAC1 and (B) VPAC2 expression in M-CSF treated bone marrow-derived macrophages (Day 0) and M-CSF + RANKL treated pre-osteoclasts (Day 2) using RT-qPCR. […] (C-E) Osteoclastogenesis in the presence of 10^-6M VIP, SNV or vehicle only (control) performed in 96-well plates; TRAP-positive multinucleated osteoclasts were evaluated after 5 days of differentiation. […]

[2] = tested on: LPS-stimulated primary murine macrophages (IL1β, IL6 and TNFα expression); test: Pro-inflammatory cytokine mRNA expression (RT-qPCR) in LPS-stimulated macrophage cultures; format: cell-based, mouse; conditions: 10^−6 M, added 1 h before LPS 1 μg/ml, 24 h, bone marrow-derived macrophages
Procedure: Cell culture. Primary bone marrow-derived macrophages (BMDMs) were isolated from the femora and tibiae of 10-week-old C57BL/6J mice (Envigo, Israel), as previously described ([Hiram-Bab et al., 2015]). Briefly, cells were cultured overnight at 37°C in a humidified atmosphere with 5% CO2 in our “standard medium” consisting of alpha-modified Eagle’s medium (αMEM, Life Science Technology, NY, United States) and 10% fetal bovine serum (FBS, Rhenium, Ltd., Modi’in, Israel). After 24 h, the non-adherent fraction was cultured in 10-cm non-culture-treated dishes containing standard medium and 100 ng/ml macrophage colony stimulating factor (M-CSF) ([Takeshita et al., 2000]). The resulting adherent BMDMs were collected after 3 days for the specific assays described below.
RNA isolation, and RT-qPCR. Following a 24 h incubation with Ti particles (or LPS/vehicle only/SNV/VIP in addition to Ti particles), macrophages were washed with sterile PBS, and RNA was extracted using Tri-RNA Reagent (Favorgen Biotech Corp, Kaohsiung, Taiwan). The 260/280 absorbance ratio was measured to verify the RNA purity and concentration. cDNA was produced using a high-capacity cDNA reverse transcription kit (Invitrogen, Grand Island, NY, United States), and real-time PCR was performed using Kapa SYBR Fast qPCR (Kapa Biosystems, Wilmington, MA, United States) on a StepOne real-time PCR machine (Applied Biosystems, Grand Island, NY, United States).
The following primers were used: F-[…] and R-[…] for mouse IL1β; F-[…] and R-[…] for mouse IL6; F-[…] and R-[…] for mouse TNFα; F-CCGTAACTGCACTGAAGA-AG and R-[…] for VPAC-1; F-CAGCAGACCAGGAAACAT-AA and R-GCCACACGCATCTATGAA for VPAC-2 and F-[…] and R-[…] for Gapdh. The reaction was subjected to 40 cycles of amplification using the following program: 95°C for 20 s, 60°C for 20 s, and 72°C for 25 s. The relative mRNA expression levels of the selected genes were normalized to the level of Gapdh.
IL1β, IL6 and TNFα are the main mediators of Ti particle-mediated inflammation and osteolysis ([Eger et al., 2017]; [Eger et al., 2018]). […]

[3] = intravenously administered, 30 min after injection; ref Gozes et al., 1994; cited from earlier work
Text: VIP and its derivative SNV have been previously studied for immunomodulation properties ([Abad et al., 2006]; [Goursaud et al., 2015]). Here we show the effect of each peptide on the cytokine profile of macrophages in response to LPS and in the osteolytic response to Ti particles using in vitro and in vivo mouse models. […] Furthermore, loading a single dose of SNV into a degradable memb ...

Stearyl–HSDAVFTDNYTRLRKQ-Nle-AVKKYLNSILN-NH2 [SNV, Stearyl-norleucine-VIP, lipophilic VIP derivative with N-terminal stearic acid and norleucine in place of methionine at position 17]
Osteoclast differentiation (osteoclast number and total area) [1]: comparable inhibitory effect
Effect on TNFα expression vs LPS ([2]; n=5): no effect
Reduction of IL1β expression levels vs LPS ([2]; n=5, p < 0.05): 35%
Change of IL6 expression vs LPS ([2]; n=5, plus = increase): no effect
Remaining intact SNV [3]: 10%
